According to the RepoRT retention time repository (doi:10.1016/j.scitotenv.2015.08.078):
Counter-ions that a name gives are not always drawn.

Test: RP, Waters ACQUITY UPLC BEH C18, 100 × 2.1 mm, 1.7 µm, 0.3 mL/min, estimated dead time 0.73 min; A: water + 0.1% formic acid, pH 3; B: methanol + 0.1% formic acid, pH 3; gradient (min/%B) 0/10 14/90 16/90 18/10
Settings: stereoisomer not certain
CCOc1ccc(C(C)(C)COCc2cccc(Oc3ccccc3)c2)cc1 [Ethofenprox] gave an LC retention time of 15.1 min.
With CC(C)=CC1C(C(=O)OCc2coc(Cc3ccccc3)c2)C1(C)C (configuration not stated) [Bioresmethrin] the LC retention time was 14.2 min.
In the case of CCNc1nc(NC(C)(C)C)nc(OC)n1 [Terbumeton], the LC retention time is reported as 8.02 min.
Work on CC(N)Cc1ccccc1 (configuration not stated) [Amphetamine] yielded an LC retention time of 3.59 min.
In the case of CC1Cc2c(Cl)cc(C(=O)O)c(O)c2C(=O)O1 (stereo not drawn) [Ochratoxin Alpha], the LC retention time is reported as 11.2 min.
CCS(=O)(=O)Cc1ccccc1OC(=O)NC [Ethiofencarb sulfone] gave an LC retention time of 4.07 min.
With CC1COc2ccccc2N1C(=O)C(Cl)Cl (configuration not stated) [Benoxacor] the LC retention time was 9.47 min.
CCC(=O)OCC(=O)C1(OC(=O)CC)C(C)CC2C3CCC4=CC(=O)C=CC4(C)C3(Cl)C(O)CC21C (configuration not stated) [Beclometasone dipropionate] gave an LC retention time of 12.3 min.
CN1C(=O)C(O)N=C(c2ccccc2)c2cc(Cl)ccc21 (configuration not stated) [Temazepam] showed an LC retention time of 10.1 min.
With CCC(=O)Nc1ccc(Cl)c(Cl)c1 [Propanil] the LC retention time was 10.3 min.
CCOP(=O)(OCC)OC(=CCl)c1ccc(Cl)cc1Cl [Chlorfenvinphos] showed an LC retention time of 12 min.
COC(=O)C1C2CC3c4[nH]c5cc(OC)ccc5c4CCN3CC2CC(OC(=O)c2cc(OC)c(OC)c(OC)c2)C1OC (configuration not stated) [Reserpine] gave an LC retention time of 8.76 min.
Work on CC(Oc1ccc(Oc2nc3ccc(Cl)cc3o2)cc1)C(=O)O (configuration not stated) [Fenoxaprop] yielded an LC retention time of 11.6 min.
In the case of COC(=O)C1C2CCC(CC1OC(=O)c1ccccc1)N2 (configuration not stated) [Norcocaine], the LC retention time is reported as 6.29 min.
Work on O=C(NC(=O)c1c(F)cccc1F)Nc1cc(Cl)c(F)c(Cl)c1F [Teflubenzuron] yielded an LC retention time of 13 min.
With CCCN(CCC)C(=O)SCc1ccccc1 [Prosulfocarb] the LC retention time was 12.6 min.
NC(=O)NN=Cc1ccc([N+](=O)[O-])o1 [Nitrofurazone] showed an LC retention time of 2.99 min.
Work on O=C1CN=C(c2ccccc2F)c2cc(Cl)ccc2N1 [Desalkyl-flurazepam] yielded an LC retention time of 10 min.
With O=C(NC(=O)c1ccccc1Cl)Nc1ccc(OC(F)(F)F)cc1 [Triflumuron] the LC retention time was 12 min.
With CCNc1nc(Cl)nc(NCC)n1 [Simazine] the LC retention time was 7.91 min.
For CCNc1nc(Cl)nc(NC(C)C)n1 [Atrazine], the LC retention time was 9.34 min.
For CN1C(=O)CN=C(c2ccccc2)c2cc(Cl)ccc21 [Diazepam], the LC retention time was 10.9 min.
In the case of CCC1OC(=O)C(C)C(OC2CC(C)(OC)C(O)C(C)O2)C(C)C(OC2OC(C)CC(N(C)C)C2O)C(C)(O)CC(C)CN(C)C(C)C(O)C1(C)O (configuration not stated) [Azithromycin], the LC retention time is reported as 6.2 min.
Compound CNC(=O)N(C)c1nnc(C(C)(C)C)s1 [Tebuthiuron] has an LC retention time of 7.79 min.
Work on CCNc1nc(NC(C)C(C)C)nc(SC)n1 (configuration not stated) [Dimethametryn] yielded an LC retention time of 11.4 min.
CCN1CCN(c2cc3c(cc2F)c(=O)c(C(=O)O)cn3C2CC2)CC1 [Enrofloxacin] gave an LC retention time of 4.58 min.
COP(=S)(OC)Oc1ccc(S(C)=O)c(C)c1 (configuration not stated) [Fenthion sulfoxide] gave an LC retention time of 7.8 min.
CC(Cc1ccc(C(C)(C)C)cc1)CN1CC(C)OC(C)C1 (configuration not stated) [Fenpropimorph] showed an LC retention time of 14.1 min.
For [O-][n+]1nc(-n2ccnc2)nc2ccc(Cl)cc21 [Triazoxide], the LC retention time was 8.54 min.
With CC(C(=O)O)c1cccc(C(=O)c2ccccc2)c1 (configuration not stated) [Ketoprofen] the LC retention time was 10.3 min.
For Cc1cc(C2CC2)nc(Nc2ccccc2)n1 [Cyprodinil], the LC retention time was 10.7 min.
CCCCCCCCSC(=O)Oc1cc(Cl)nnc1-c1ccccc1 [Pyridate] showed an LC retention time of 14.3 min.
CCCSP(=S)(OCC)Oc1ccc(SC)cc1 (configuration not stated) [Sulprofos] showed an LC retention time of 14.2 min.
CC(C)(C)NCC(O)c1cc(Cl)c(N)c(Cl)c1 (configuration not stated) [Clenbuterol] showed an LC retention time of 5.15 min.
With Cc1c(Nc2ncccc2C(=O)O)cccc1C(F)(F)F [Flunixin] the LC retention time was 9.31 min.
Compound CCOC(=O)C(Cl)Cc1cc(-n2nc(C)n(C(F)F)c2=O)c(F)cc1Cl (configuration not stated) [Carfentrazone-ethyl] has an LC retention time of 11.4 min.
In the case of CC1(C)CN=C(NN=C(C=Cc2ccc(C(F)(F)F)cc2)C=Cc2ccc(C(F)(F)F)cc2)NC1 [Hydramethylnon], the LC retention time is reported as 12.8 min.
COc1cc(OC)c(C(=O)CCCN2CCCC2)c(OC)c1 [Buflomedil HCl] gave an LC retention time of 5 min.
CCON=C(OC(=O)c1ccccc1)c1c(OC)ccc(Cl)c1OC [Benzoximate] showed an LC retention time of 12.1 min.
For OC(CCCN1CCN(c2ccccn2)CC1)c1ccc(F)cc1 (configuration not stated) [Azaperol], the LC retention time was 4.96 min.
For OC(c1ccc(F)cc1)(c1cncnc1)c1ccccc1Cl (configuration not stated) [Nuarimol (Trimidal)], the LC retention time was 10 min.
Clc1ccccc1CN1CCc2sccc2C1 [Ticlopidine] showed an LC retention time of 12.1 min.
In the case of CC1(C)SC2C(NC(=O)Cc3ccccc3)C(=O)N2C1C(=O)O (configuration not stated) [Penicillin G], the LC retention time is reported as 8.55 min.
Compound Cn1c([N+](=O)[O-])cnc1C(C)(C)O [Hydroxyipronidazole (IPZOH)] has an LC retention time of 4.6 min.
Compound Cc1nnc(-c2ccccc2)c(=O)n1N [Metamitron] has an LC retention time of 4.51 min.
Work on CC(C)(C)NCC(O)c1ccccc1Cl (configuration not stated) [Tulobuterol] yielded an LC retention time of 5.6 min.
Compound Cc1c(Cl)cccc1Nc1ccccc1C(=O)O [Tolfenamic acid] has an LC retention time of 11 min.
In the case of CSc1nc(NC(C)C)nc(NC(C)C)n1 [Prometryn], the LC retention time is reported as 10.8 min.
For COCC(=O)N(c1c(C)cccc1C)C(C)C(=O)OC (configuration not stated) [Metalaxyl], the LC retention time was 9.73 min.
Work on CC1(C)SC2C(NC(=O)C(N)c3ccc(O)cc3)C(=O)N2C1C(=O)O (configuration not stated) [Amoxicillin] yielded an LC retention time of 4.61 min.
For CC(C)Oc1cccc(NC(=O)c2ccccc2C(F)(F)F)c1 [Flutolanil], the LC retention time was 10.5 min.
For CCC1CCCC(OC2CCC(N(C)C)C(C)O2)C(C)C(=O)C2=CC3C(C=C(C)C4CC(OC5OC(C)C(OC)C(OC)C5OC)CC43)C2CC(=O)O1 (configuration not stated) [Spinosyn D], the LC retention time was 12.5 min.
For CCC(C)C1OC2(CCC1C)CC1CC(CC=C(C)C(OC3CC(OC)C(OC4CC(OC)C(O)C(C)O4)C(C)O3)C(C)C=CC=C3COC4C(O)C(C)=CC(C(=O)O1)C34O)O2 (configuration not stated) [Ivermectin], the LC retention time was 16.3 min.
In the case of CCc1cccc(CC)c1N(COC)C(=O)CCl [Alachlor], the LC retention time is reported as 11.7 min.
COc1cc(OC)nc(NC(=O)NS(=O)(=O)c2ncccc2C(F)(F)F)n1 [Flazasulfuron] gave an LC retention time of 7.14 min.
Work on CC1C(c2ccc(Cl)cc2)SC(=O)N1C(=O)NC1CCCCC1 (configuration not stated) [Hexythiazox] yielded an LC retention time of 14.2 min.
In the case of CNC(=O)Oc1cccc2c1OC(C)(C)C2 [Carbofuran], the LC retention time is reported as 8.15 min.
Compound Cc1nn(C)c(Oc2ccccc2)c1C=NOCc1ccc(C(=O)OC(C)(C)C)cc1 [Fenpyroximate] has an LC retention time of 13.7 min.
CNC(=O)ON=C(C)SC [Methomyl] showed an LC retention time of 3.09 min.
N#Cc1nn(-c2c(Cl)cc(C(F)(F)F)cc2Cl)c(N)c1S(=O)C(F)(F)F (configuration not stated) [Fipronil] showed an LC retention time of 11.3 min.
In the case of NC(C(=O)NC1C(=O)N2C(C(=O)O)=C(Cl)CSC12)c1ccccc1 (configuration not stated) [Cefaclor], the LC retention time is reported as 4.02 min.
Compound O=C(Nc1ccccc1)Nc1ccnc(Cl)c1 [Forchlorfenuron] has an LC retention time of 8.95 min.
